The record followed here is PMC5084075 (ACS Central Science, 2016).

Read-outs that look alike come from different tables or passages of the source.

Data set [1] can be described thus: in vitro. The arrangement: plasma stability, half-life and per cent remaining. The note with it: plasma; plasma Mouse; read-out: t1/2 plasma Mouse. On the procedure: (§1) Representative compounds from both subseries were evaluated in an oral in vivo mouse trial (Data Set S22). The original starting points OSM-S-5 and -6 (Figure 2) were chosen along with NN representative OSM-S-35 (Figure 4). […] It is plausible that at least some of the arylpyrrole ester compounds would be degraded by general hydrolysis during absorption, and this could explain their inactivity in the mouse model despite their more favorable (although still high) cLogP values. […] Esterase activity is higher in rodents than in other species,[102] as confirmed by using p-nitrophenol acetate as a control compound in this assay.

The target of the next data set is T1, PfDHODH (Plasmodium falciparum, UniProt Q08210).
T1 sequence (Q08210 1-569): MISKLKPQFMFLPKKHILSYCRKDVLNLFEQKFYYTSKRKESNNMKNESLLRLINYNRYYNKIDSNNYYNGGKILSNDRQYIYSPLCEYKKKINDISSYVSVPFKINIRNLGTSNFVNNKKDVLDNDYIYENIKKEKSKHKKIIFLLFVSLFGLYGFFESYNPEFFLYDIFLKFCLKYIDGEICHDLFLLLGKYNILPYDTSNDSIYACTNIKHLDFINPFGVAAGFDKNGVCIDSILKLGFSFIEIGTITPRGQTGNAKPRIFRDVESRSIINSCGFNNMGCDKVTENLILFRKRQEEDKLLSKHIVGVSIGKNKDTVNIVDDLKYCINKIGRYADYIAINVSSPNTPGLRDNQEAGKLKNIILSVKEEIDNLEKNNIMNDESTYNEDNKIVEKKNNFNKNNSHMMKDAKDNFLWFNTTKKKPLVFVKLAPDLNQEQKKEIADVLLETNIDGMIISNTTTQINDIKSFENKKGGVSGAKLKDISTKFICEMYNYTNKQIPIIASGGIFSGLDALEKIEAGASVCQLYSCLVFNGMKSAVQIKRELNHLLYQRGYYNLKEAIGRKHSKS
Briefly: biochemical. The arrangement: PfDHODH enzyme inhibition IC50. The note with it: read-out: DHODH. The text has this: The potency of the near neighbor set led to an in silico target prediction study being performed on OSM-S-39 (Text S11). The method employed a naive Bayes statistical model identifying molecular structural features of small molecules with protein targets, using the ChEMBL database. Similar statistical approaches based on known activities of compounds have been successfully applied to identify targets of antitubercular compounds.[112]−[114] A total of 1,287 proteins were included for which at least 50 active compounds were known with activities <10 μM, with the other compounds in the database comprising the inactives. After the OSM compounds were scored against each target, the scores obtained were standardized by comparison with scores obtained through comparison with a random set of >10K compounds. The prediction list was culled for proteins relevant to malaria (3D7 proteome), and the analysis gave as the most likely candidate targets, in order of significance, carboxy-terminal domain RNA polymerase II polypeptide A small phosphatase 1 (Q8I3U9), dihydroorotate dehydrogenase (DHODH, Q08210), SUMO-activating enzyme subunit 2 (Q8I553) and 1 (Q8IHS2), and cyclin-dependent kinase 1 (P61075). […] A line of inquiry remaining open is the equivalent assays against the other targets identified in the in silico prediction.

Data set [2] in a line: in vitro. The arrangement: stability in mouse plasma. The note with it: plasma; mouse plasma; read-out: t1/2 plasma Mouse. How it is done:
as §1

For data set [3], the system named is T2, Plasmodium falciparum Pfal (3D7).
T2 construct: 3D7
Briefly: microbe, parasite or virus in culture. The note with it: 3D7, Erythrocyte, lab named in column head, read-out: Pfal IC50 (Batra). Also on record: species or system erythrocytes; P. falciparum asexual blood-stage whole-cell growth inhibition, IC50. How it is done:
(§2) To confirm the promise of the two starting points OSM-S-5 and -6, they were evaluated against 3D7 (drug-sensitive) and K1 (chloroquine resistant) strains of Plasmodium falciparum in a whole cell assay and against HEK-293 cells as a cytotoxicity marker (Table SB1, Biological Protocols; tables with the prefix “SB” may be found in the Supporting Information). Biological data may be browsed in a static data set taken as a snapshot for this paper (Data Sets S1 (Excel), S2 (SDF)), online in a database constructed through periodic batch uploads,[68] or in a “living database” to which may be added future data;[69] the latter may be visualized in a web browser[70] using an open source system that was recently deployed in the Wikipedia Chemical Structure Explorer,[71] or the data may be downloaded and visualized offline with proprietary (Figure S4)[72] or open source (Figure S5)[73] tools). The evaluation was performed in three different institutions using different assays and widely employed controls; controls are important to assess reproducibility and interassay variability[74] but also to minimize possible bias in evaluating compounds where there are pre-existing data from other researchers already in the public domain (Figure S6).[75]

Data set [4] deals with T3, Plasmodium falciparum Pfal (K1).
T3 construct: K1
Briefly: microbe, parasite or virus in culture. The arrangement: species or system erythrocytes; P. falciparum asexual blood-stage whole-cell growth inhibition, IC50. The note with it: K1, Erythrocyte, lab named in column head, read-out: Pfal (K1) IC50 (Batra). On the procedure: as §2

Data set [5] deals with T4, hERG (human ether-à-go-go-related gene ion channel) (Homo sapiens, UniProt Q12809).
T4 construct: gene KCNH2
Put plainly: cell-based. The arrangement: hERG channel inhibition counterscreen. The note with it: read-out: hERG pIC50 (converted). The source says: There is increasing awareness of the importance for drug candidates of inhibition of hERG (the human ether-à-go-go-related gene ion channel), which is sensitive to blockade by many drug-like structures. Such blockage has led to a number of prominent postmarketing withdrawals.[103] Regulators are sensitive to any hERG activity, and a hERG counterscreen is often now run early in hit characterization and series prioritization.

Data set [6] relates to T5, Plasmodium falciparum K1 (chloroquine resistant).
T5 construct: K1
Briefly: microbe, parasite or virus in culture. Also on record: species or system P. falciparum blood stage culture; whole-cell asexual blood stage P. falciparum growth inhibition. As to conditions: Batra assay, read-out: Pfal (K1) IC50 (Batra). On the procedure: as §2

Data set [7] relates to Plasmodium falciparum Pfal (strain not named in column head). Briefly: microbe, parasite or virus in culture. The arrangement: species or system P. falciparum blood stage culture; whole-cell asexual blood stage P. falciparum growth inhibition. The note with it: Batra assay. On the procedure:
as §2

The test system of data set [8] is Plasmodium falciparum mature stage V gametocytes (DGFA). Briefly: microbe, parasite or virus in culture. Also on record: dual gamete formation assay, inhibition of male and female gamete formation. The note with it: 24 h. On the procedure:
The discrepancy in the data arising from these two gametocyte assays may arise from the slightly different cell biology assayed (stage IV/V gametocytes vs stage V mature gametocytes) or most likely is a function of the relative compound exposure times (96 h vs 24 h).

In data set [9] the test system is Plasmodium falciparum Pfal (strain not named in column head). Briefly: microbe, parasite or virus in culture. Also on record: asexual blood stage P. falciparum whole-cell growth inhibition. On the procedure:
as §2

A short description of data set [10]: in vitro. Also on record: metabolic stability in human liver microsomes, LC-MS, NADPH, 0.4 mg/mL protein. As to conditions: liver microsomes, human liver microsomes. How it is done: (§3) The two original GSK hits (OSM-S-5 and -6) and six NN compounds were evaluated for their kinetic solubility in phosphate buffer and their metabolic stability in human liver microsomes (Table SB5, Data Sets S20 and S21).
In general terms: Liver microsomes are a subcellular fraction often used to study metabolism.

Data set [11] can be described thus: in vitro. Also on record: metabolic stability in mouse liver microsomes, LC-MS, NADPH, 0.4 mg/mL protein. As to conditions: liver microsomes, mouse liver microsomes. How it is done: as §3
Where [12] appears, read: read-out: 0.4 / CLint, in vitro / (mL/min/mg protein).
Setting [13] is: read-out: Protein Conc. (mg/mL): / Degradation half-life /.

T4 sequence (Q12809 whole entry): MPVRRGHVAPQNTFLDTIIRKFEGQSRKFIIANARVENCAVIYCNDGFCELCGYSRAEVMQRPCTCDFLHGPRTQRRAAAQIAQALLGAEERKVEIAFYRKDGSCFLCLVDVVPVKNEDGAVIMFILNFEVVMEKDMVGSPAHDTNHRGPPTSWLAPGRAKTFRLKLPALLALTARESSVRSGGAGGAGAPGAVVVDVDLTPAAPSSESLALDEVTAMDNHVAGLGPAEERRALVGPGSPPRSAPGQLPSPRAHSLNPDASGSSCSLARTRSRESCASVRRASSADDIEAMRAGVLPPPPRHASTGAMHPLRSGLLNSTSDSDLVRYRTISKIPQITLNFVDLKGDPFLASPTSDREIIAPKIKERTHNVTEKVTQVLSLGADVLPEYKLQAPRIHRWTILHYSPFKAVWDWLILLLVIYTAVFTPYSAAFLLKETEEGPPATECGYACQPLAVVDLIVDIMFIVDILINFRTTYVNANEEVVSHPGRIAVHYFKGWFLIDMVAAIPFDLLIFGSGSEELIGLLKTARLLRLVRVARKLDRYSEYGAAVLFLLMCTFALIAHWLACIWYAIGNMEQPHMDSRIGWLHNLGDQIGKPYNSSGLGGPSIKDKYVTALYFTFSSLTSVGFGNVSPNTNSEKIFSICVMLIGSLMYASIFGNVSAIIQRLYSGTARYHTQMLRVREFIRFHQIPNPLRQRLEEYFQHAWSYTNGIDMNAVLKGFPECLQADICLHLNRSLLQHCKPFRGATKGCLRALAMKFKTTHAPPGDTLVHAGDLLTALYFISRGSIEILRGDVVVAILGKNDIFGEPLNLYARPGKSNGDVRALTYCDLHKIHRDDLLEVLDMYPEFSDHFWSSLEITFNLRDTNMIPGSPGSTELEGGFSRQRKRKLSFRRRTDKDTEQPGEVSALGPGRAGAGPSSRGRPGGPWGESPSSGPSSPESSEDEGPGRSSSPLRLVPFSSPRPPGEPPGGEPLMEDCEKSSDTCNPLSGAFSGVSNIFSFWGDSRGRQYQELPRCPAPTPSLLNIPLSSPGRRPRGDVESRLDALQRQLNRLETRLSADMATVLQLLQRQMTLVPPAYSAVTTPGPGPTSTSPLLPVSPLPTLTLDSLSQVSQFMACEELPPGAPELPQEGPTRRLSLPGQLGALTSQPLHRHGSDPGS

On to `Cc1cc(C(=O)OCC(N)=O)c(C)n1-c1ccc(F)cc1` [OSM-S-5], for which the half-life in the data set “in vitro [1]” and in “in vitro [2]” was 1.9 h throughout. The IC50 is greater than 50000 nM on PfDHODH; 581 nM in [3]; 641 nM in data set [4]; greater than 31600 nM in [5]; 641 nM in data set [6]; 581 nM in data set [7]. Besides, the inhibition at 1 µM worked out at 13.5% in [8] (female gametocytes) and 5.1% in data set [8] (male gametocytes).

Take `Nc1ncnc2cc(-c3cccc(S(N)(=O)=O)c3)sc12` [OSM-S-106]: the IC50 in data set [9] was found to be 36 nM. In addition, the microsomal CLint in the data set “in vitro [10]” (setting [12]) is less than 0.007 mL/min/mg; in “in vitro [11]” (setting [12]), 0.0471 mL/min/mg. The results for the half-life in “in vitro [10]” (setting [13]) and in the data set “in vitro [11]” (setting [13]) were greater than 4.12 h and 0.613 h, respectively.

What is called inhibition is how much of the control response was suppressed.
